This passage reports TGI and GI50 results from PubChem BioAssay (NCI).

Assay in all cases: growth of human tumour cells (NCI), 48 h
The subject of test [1] is CCRF-CEM leukemia.
In test [2] the test system is EKVX NSCLC.
For test [3], the system named is MALME-3M melanoma.
Test [4] relates to MCF7 breast.
The subject of test [5] is MDA-MB-231 breast.
Test [6] deals with MDA-N.
The subject of test [7] is SK-MEL-2 melanoma.
Test [8] relates to DU-145 prostate.
Test [9] relates to LOX IMVI melanoma.
In test [10] the test system is NCI-H460 lung.

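Interpolation was linear, between the two tested concentrations surrounding the appropriate level; five concentrations were tested over 48 hours in 96-well plates. Here, GI50 denotes the concentration required for 50% inhibition of growth. TGI denotes the concentration required for complete inhibition of growth.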 Where a SMILES comes first, the peptide text is derived from it. The star is where a group is joined. Boc = CC(C)(C)OC(=O)*; OBn = c1ccc(CO*)cc1

As to `O=C(NCc1ccc(Cl)cc1)c1cc2sccc2nc1C(F)(F)F`, the TGI in test [1], in test [2], in test [3], in test [4], in test [5] and in test [6] was greater than 100 µM each time. Further, the TGI in test [7] is greater than 100 µM.
Turning to `CC(=Nc1ccncc1)C(C)=Nc1ccncc1`, the TGI in test [1] was 85.5 µM; in test [8], greater than 100 µM; in [2], 48.7 µM; in test [9] it was 42.1 µM; in test [3], 37.3 µM; in test [4] it was 38.3 µM. Further, the TGI in [5] was 62.6 µM; in test [10], greater than 100 µM; in test [7], 45.1 µM.
As for `Clc1ccc(N=c2oc3ccccc3cc2-c2nc3ccccc3[nH]2)c(Cl)c1`, the TGI in test [1], in test [8], in [2], in test [9], in [3] and in test [6] was greater than 100 µM each time.
Consider `O=c1[nH]c(Nc2cccc(Cl)c2)nc2nc[nH]c12`, for which the TGI in [1], in test [8], in [2], in [9], in [3] and in [4] was greater than 100 µM throughout. In addition, the TGI in test [5], in [10] and in test [7] was greater than 100 µM each time.
With `C#CCn1c(=O)c(C#N)c(O)c2cc3ccccc3nc21`, the TGI in test [1], in test [2], in [9], in test [3], in [4] and in test [10] was greater than 100 µM throughout. In [7], this molecule yielded a TGI greater than 100 µM.
For the molecule `COc1cc(S(=O)(=O)Nc2ccc(-c3csc(N4C(=O)CSC4c4ccccc4)n3)cc2)ccc1Cl` (stereo not given), the TGI was greater than 100 µM in [1]; greater than 100 µM in test [8]; greater than 100 µM in test [2]; greater than 100 µM in [9]; greater than 100 µM in test [3]; 87.4 µM in test [4]. Also, the TGI in test [6], in [10] and in test [7] was greater than 100 µM throughout.
For the molecule `CC(C)(C)OC(=O)NC(Cc1ccccc1)C(=O)NC(Cc1ccccc1)C(=O)NCC(=O)OCc1ccccc1` (stereo not drawn) (Boc-Phe-Phe-Gly-OBn; configuration not given here), the TGI in test [1] is 43.1 µM; in test [8], 33.2 µM; in test [2], greater than 100 µM; in [9], 24.5 µM; in test [3] it was greater than 100 µM; in [4], greater than 100 µM. Besides, the values for the TGI in test [6], in test [10] and in test [7] were 53.3 µM, 49.9 µM and greater than 100 µM, respectively.
On to `c1ccc2c(Cc3nnc4sc(SSc5nn6c(Cc7c[nH]c8ccccc78)nnc6s5)nn34)c[nH]c2c1`, for which the TGI in test [1] is greater than 100 µM; in test [8], 67.4 µM; in test [2], greater than 100 µM; in test [3] it was 78.7 µM; in [4], 46.4 µM; in [10], 89.3 µM.
For `Cc1ccc(-c2n[nH]c(=O)[nH]2)cc1[N+](=O)[O-]`, the TGI in test [1], in [8], in test [2], in [9], in [3] and in test [4] was greater than 100 µM throughout. Also, the TGI in test [6], in test [10] and in [7] was greater than 100 µM in each case.
For the molecule `COc1cc(S(=O)(=O)Nc2ccc(C3=NNC(c4ccccc4)C3)cc2)ccc1F` (stereo not given), the GI50 in test [8] was 76.1 µM; in test [2], 17.8 µM; in test [9], 73.5 µM; in test [3] it was 13.2 µM; in test [4], 22.2 µM; in test [10], 32.3 µM. Further, in [7], the GI50 is greater than 100 µM. Also, the TGI in [8] is greater than 100 µM; in [2], greater than 100 µM; in test [9], greater than 100 µM; in [3], 49.8 µM; in test [4] it was greater than 100 µM; in [10] it was greater than 100 µM. Besides, the TGI in test [7] is greater than 100 µM.
On to `Oc1ccc(CCc2cc(O)cc(O)c2)cc1`, for which the TGI in test [8], in test [2], in [3], in [4], in test [5] and in [10] was greater than 100 µM throughout. Besides, in [7], the TGI is greater than 100 µM.
As to `NNC(=S)N1CCN(C(=S)NN)CC1`, the TGI in test [1], in test [8], in test [2], in [9], in test [3] and in test [5] was greater than 100 µM each time. For the same molecule, the TGI in [6], in test [10] and in test [7] was greater than 100 µM each time.
As to `COc1ccc(C(=O)N2c3ccccc3Sc3ccccc32)c(C(F)(F)F)c1`, the GI50 was 0.0879 µM in test [1]; 0.433 µM in test [8]; 0.613 µM in [2]; 0.516 µM in test [9]; 25.8 µM in test [3]; 0.411 µM in test [4]. Further, the figures for the GI50 in test [5], in test [10] and in test [7] were 1.16 µM, 0.383 µM and 0.677 µM, respectively. In addition, the TGI in [1], in [8], in test [2], in test [9], in test [3] and in test [4] was greater than 100 µM in each case. The TGI in [5] is 92.2 µM; in test [10] it was greater than 100 µM; in [7] it was greater than 100 µM.
For the molecule `C=CC[C@@]1(C(=O)OC)[C@H](Sc2ccccc2)C1(C)C`, the TGI in test [1] was greater than 100 µM; in test [8] it was greater than 100 µM; in test [2], greater than 100 µM; in [3], 84.9 µM; in test [4], 74.1 µM; in [5], greater than 100 µM. Besides, the TGI in [10] was greater than 100 µM; in [7], 64.1 µM.
`COc1cc2c(cc1OC)-c1c3c(cc4c1[C@@H](C2)N(C)CC4)OCO3`: the TGI was found to be 39.4 µM in [1]; 37.3 µM in test [2]; 75 µM in test [9]; 20.1 µM in test [3]; 27.3 µM in [4]; 14.3 µM in test [10]. Further, the TGI in test [7] stood at 22 µM.
Consider `NCCCCNCCCNC(=O)c1nc(-c2csc(CCN)n2)sc1Cl`, for which the TGI in [1], in test [2], in test [3], in test [10] and in [7] was greater than 100 µM in each case.
For `CSC1=NS(=O)(=O)c2cc(C(=O)NN(C)C(=O)c3cc4c(cc3Cl)SC(SC)=NS4(=O)=O)c(Cl)cc2S1`, the TGI in [1], in test [8], in test [2], in [9], in test [3] and in test [4] was greater than 10 µM in each case. Besides, the TGI in test [6], in test [10] and in test [7] was greater than 10 µM throughout.
As for `COC(=O)[C@@H]1C[C@@]2(C3C=CN(C(=O)C(F)(F)F)C=C3)c3ccccc3N(C(=O)C(F)(F)F)[C@H]2N1C(=O)OC`, the TGI in test [1], in test [8], in [2], in test [9], in test [3] and in test [4] was greater than 100 µM in each case. Moreover, the TGI in test [5] and in test [10] was greater than 100 µM each time.
As for `O=C(N[C@H]1c2ccsc2/C(=N/O)[C@H]1O)C(F)(F)F`, the TGI in test [1], in [8], in test [2], in [9], in test [3] and in test [4] was greater than 100 µM throughout. Further, the TGI in test [6], in [10] and in [7] was greater than 100 µM each time.
In the case of `CCc1ccc2c(c1)CC1(C2)Cc2cc3c(cc2C1)C(=O)CC3` (stereo not given), the TGI in test [1] is 8.31 µM; in [2], greater than 100 µM; in test [9] it was 37 µM; in test [3], 57.1 µM; in test [4], greater than 100 µM; in test [5], 87.7 µM. Further, in [7], the TGI was found to be 16.8 µM.
With `O=C(NCCCNCCNC(=O)c1cc(-c2ccccc2)nc2ccccc12)c1cc(-c2ccccc2)nc2ccccc12`, the TGI in test [1] is 3.42 µM; in [2], 5.2 µM; in [9], 2.95 µM; in test [3], 3.43 µM; in [4], 3.15 µM; in test [5], 3.52 µM. Besides, the TGI amounted to 3.36 µM in test [6] and 3.31 µM in test [10].
As for `C/C(O)=C/c1nc2ccc([N+](=O)[O-])cc2nc1/C=C(/C)O`, the TGI is 61.9 µM in test [1]; greater than 100 µM in test [8]; greater than 100 µM in [2]; greater than 100 µM in test [9]; 94.3 µM in [3]; greater than 100 µM in [5]. The TGI in test [6] was greater than 100 µM; in test [10], 51.5 µM; in test [7], 96.8 µM.
`Nc1cc(N2CCCC2)nc(=O)n1Cc1ccccc1`: the TGI in [1], in [8], in test [2], in test [9], in test [3] and in test [4] was greater than 100 µM each time. Also, the TGI in test [5], in [10] and in [7] was greater than 100 µM throughout.
As for `CC1(Cl)CC2C(CC1Sc1nnnn1-c1ccccc1)C2(C)C` (stereo not given), the TGI in [1], in [2], in [9], in [10] and in test [7] was greater than 100 µM throughout.
For `C[C@]12CC[C@H](O)CC1=CC[C@@H]1[C@@H]2CC[C@]2(C)/C(=N/OCCN3CCCC3)CC[C@@H]12`, the TGI was 49.2 µM in test [2]; 33.4 µM in test [9]; 27.1 µM in test [3]; 44.9 µM in test [4]; 36.9 µM in test [5]; 34.3 µM in test [6]. Further, the figures for the TGI in test [10] and in test [7] were 24.8 µM and 45.1 µM, respectively.
Take `NNc1nncn1N`: the TGI in test [1] was 33.2 µM; in test [8], greater than 67.3 µM; in [2], greater than 100 µM; in test [9], greater than 100 µM; in test [3], greater than 85.4 µM; in [4], greater than 100 µM. The TGI in [5], in [10] and in test [7] was greater than 100 µM each time.
`CC(C)CNC(=O)Cn1c(-c2ccccc2)cc2ccccc21`: the TGI in test [1], in test [8], in [2], in test [9], in test [3] and in test [4] was greater than 100 µM throughout. The TGI in test [6], in [10] and in test [7] was greater than 100 µM throughout.
Turning to `Cc1c2c(OCCCCN3CCN(c4ncccn4)CC3)nn(C)c(=O)c2c(C)n1-c1ccccc1`, the TGI in test [1] is greater than 100 µM; in [8], 35.8 µM; in test [2], 36.6 µM; in test [9], 44.5 µM; in test [3], 35.7 µM; in test [4], 31.4 µM. Besides, the figures for the TGI in test [5], in [10] and in test [7] were 30.7 µM, 35.6 µM and 34.6 µM, respectively.
As to `COc1cccc(-c2cc(=O)c3ccc(C)nc3[nH]2)c1`, the TGI was 3.7 µM in test [8]; greater than 100 µM in [2]; greater than 100 µM in test [9]; greater than 100 µM in test [3]; greater than 22.9 µM in [4]; greater than 100 µM in [5]. Also, the TGI in test [10] and in test [7] was greater than 100 µM in each case.
Turning to `O=c1[nH]c2cc3[nH]c4ncccc4c(=O)c3cc2[nH]1`, the TGI in test [1], in test [8], in test [2], in test [9], in test [3] and in test [5] was greater than 10 µM in each case. For the same molecule, the TGI in [6], in test [10] and in test [7] was greater than 10 µM in each case.
